Results published in US9771560B2, “High-throughput image-based chemical screening in zebrafish blastomere cell culture” (CHILDREN'S MEDICAL CENTER CORPORATION, priority 2012, dated 2017).
“And” between values parts separate entries of the source, which are not always exact repeats. Identical values can stand only once.

Key:
[1] = test system: satellite cells from mdx mice; assay: In vitro expansion of mdx satellite cells (cell count); type: cell-based, mouse; details: 5 days in culture
Procedure: (§1) SMP isolation was performed as previously described (Cerletti et al., 2008; Sherwood et al., 2004). Briefly, MFA cells were prepared from intact skeletal muscles (EDL, gastrocnemius, quadriceps, soleus, TA, triceps brachii, abdominal) by digesting the muscles with collagenase type II and then dispase enzymes. MFA cells were stained for isolation of CD45^−Sca-1^−Mac-1^−CXCR4^+ b1-integrin^+ cell population by FACS. For in vitro expansion experiments, SMPs were seeded on collagen/laminin-coated plates in F10 (Gibco) containing 20% horse serum (Atlanta Biologics), 1% penicillin-streptomycin (Invitrogen) and 1% glutamax (Invitrogen). […] Cells were counted or used for transplantation after 5 days in culture. For Myogenic colony formation assay cells were fixed and counted after 6 days in culture. […]
(§2) Cultured SMPs were fixed in 4% paraformaldehyde (PFA) and stained with 10 μg/ml Hoechst (Invitrogen). […] The images were analyzed and numbers of cells were counted by the built-in software. […] The images were analyzed and percentage of nuclei in myotubes was calculated using a modified ImageJ macro developed in-house. […]
(§3) We hypothesized that the chemical hits enhancing skeletal muscle development in zebrafish blastomeres may likewise promote muscle precursor cell formation and/or expansion in other species. […] Cell number in the resulting colonies was determined after 5 days in culture.

cultured satellite cells = assay: Flow cytometry of CXCR4 and β-1 Integrin on cultured satellite cells; type: cell-based, mouse; details: after 5 days in culture, FACS
Procedure: FIG. 5C, GFP^+ satellite cells were harvested from β-actin GFP mice and were transplanted into TA muscle of recipient mdx mice, injured 1 day previously by injection of cardiotoxin, either right after isolation or after five days in culture with DMSO or forskolin treatment. […] Scale bars represent 200 μm.
Flow cytometry analysis was performed using a BD LSR II, provided through the Harvard Stem Cell Institute Flow Cytometry Core Facility. Flow cytometry data were collected using DIVA (Becton Dickinson (BD), Franklin Lakes, N.J.) software and analyzed offline using Flowjo software (Tree Star, Inc., Macintosh version 8.1.1, Ashland, Oreg.). Antibodies used for flow cytometry included: APC/Cy7 anti-mouse Ter119, clone Ter119 (1:200, Biolegend 116223), APC/Cy7 anti-mouse CD45, clone 30-F11 (1:200, Biolegend 103116), APC/Cy7 anti-mouse CD11b, clone M1/70 (1:200, Biolegend 101226), APC Anti-mouse Ly-6A/E (Sca-1), clone D7 (1:200, Biolegend 108112), Biotin anti-mouse CD184 (CXCR4, Fusin) (1:100, BD Biosciences 551968), Streptavidin PE-Cy7 (1:100, eBioscience 25-4317-82), PE anti-mouse/rat CD29 Antibody (1:100, Biolegend 102208). Live cells were identified by positive staining with calcein blue (1:1000) (Invitrogen, Carlsbad, Calif.) and negative staining for propidium iodide (PI, 1 μg/mL). […]

[2] = test system: cAMP levels in mouse satellite cell cultures; assay: cAMP-Glo assay in cultured satellite cells; type: cell-based
Procedure: cAMP assay was performed using the cAMP-Glo™ Assay kit (Promega) according to the manufacturer's protocol.
To test forskolin's effect on satellite cell survival and proliferation, single cells were plated at one cell per well in 96-well plates and treated with forskolin or DMSO. After six days in vitro culture, we quantified the number of wells containing any number of myogenic cells (a measure of cell survival) and the number of cells in those wells (a measure of cell proliferation) (FIG. 3D).

[3] = test system: satellite cells from C57BL/6J mice; assay: In vitro expansion of mouse satellite cells (cell count); type: cell-based; details: 5 days in culture
Procedure: as §1, §2, §3

## C=C[C@@]1(C)CC(=O)[C@]2(O)[C@@]3(C)[C@@H](O)CCC(C)(C)[C@@H]3[C@H](O)[C@H](OC(C)=O)[C@@]2(C)O1 [forskolin]
[1]
  fold change of number of satellite cells compared to DMSO: ~3.6 folds
Cultured satellite cells
  frequency of cells co-expressing CXCR4 and β-1 Integrin: 78.9%+/−1.52% and ~80%
[2]; 25 μM forskolin
  concentration of cAMP, fold increase compared to DMSO treated cells: ~4.5 fold
[2]; 50 μM forskolin
  concentration of cAMP, fold increase compared to DMSO treated cells: ~5.2 fold
[2]; 100 μM forskolin
  concentration of cAMP, fold increase compared to DMSO treated cells: ~5.7 fold
[3]; absence of bFGF
  total number of cells, fold change compared to DMSO treated cells: ~2 folds
[3]; presence of bFGF
  total number of cells, fold change compared to DMSO treated cells: ~2.3 folds
